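Dose response: 5 concentrations. Exposure: 48 h. Format: 96-well plates. Endpoint: linear interpolation; highest concentration if not reached. TGI: total growth inhibition.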
What was measured:
Assay in all cases: NCI-60 cell line screen, 48 h
[1] = test system: A498 renal
[2] = test system: SW-620 colon
[3] = test system: OVCAR-4 ovarian
[4] = test system: RXF-631 renal
[5] = test system: MALME-3M melanoma
[6] = test system: XF 498 CNS
[7] = test system: RPMI-8226 leukemia
[8] = test system: SNB-75 CNS
[9] = test system: HCT-116 colon
[10] = test system: LOX IMVI melanoma
[11] = test system: HCC-2998 colon
[12] = test system: SN12C renal
[13] = test system: DMS 114 small cell lung
[14] = test system: IGROV1 ovarian
[15] = test system: DMS 273 small cell lung
[16] = test system: MOLT-4 leukemia
[17] = test system: HOP-92 NSCLC
[18] = test system: SNB-19 CNS
[19] = test system: NCI-H460 lung
[20] = test system: TK-10 renal
[21] = test system: M19-MEL melanoma
[22] = test system: NCI-H23 lung
[23] = test system: M14 melanoma
[24] = test system: CAKI-1 renal
[25] = test system: SK-MEL-2 melanoma
[26] = test system: A549 NSCLC
[27] = test system: HT29 colon
[28] = test system: HL-60(TB) leukemia
[29] = test system: ACHN renal
[30] = test system: OVCAR-5 ovarian
[31] = test system: UO-31 renal
[32] = test system: CCRF-CEM leukemia
[33] = test system: COLO 205 colon
[34] = test system: UACC-257 melanoma
[35] = test system: UACC-62 melanoma
[36] = test system: NCI-H226 lung
[37] = test system: HOP-62 NSCLC
[38] = test system: U251 CNS
[39] = test system: DLD-1 colon
[40] = test system: SF-295 CNS
[41] = test system: OVCAR-3 ovarian
[42] = test system: OVCAR-8 ovarian
[43] = test system: SF-268 CNS
[44] = test system: KM12 colon
[45] = test system: 786-0 renal
[46] = test system: RXF 393 renal
[47] = test system: EKVX NSCLC
[48] = test system: K-562 leukemia
[49] = test system: LXFL 529 NSCLC
[50] = test system: SK-MEL-28 melanoma
[51] = test system: NCI-H522 lung
[52] = test system: SR leukemia
[53] = test system: SF-539 CNS
[54] = test system: SK-OV-3 ovarian
[55] = test system: SK-MEL-5 melanoma
[56] = test system: SNB-78 CNS
[57] = test system: HCT-15 colon
[58] = test system: KM20L2 colon
[59] = test system: MDA-N
[60] = test system: HOP-18 NSCLC
[61] = test system: DU-145 prostate
[62] = test system: T-47D breast
[63] = test system: PC-3 prostate
[64] = test system: MDA-MB-435
[65] = test system: MDA-MB-231 breast
[66] = test system: MCF7 breast

Measured: TGI

CCOC(=O)C(=O)C1C(=O)Nc2ccccc21 (stereo unspecified)
not listed: [51] | [52] | [53] | [54] | [55] | [56] | [57] | [58] | [59] | [60] | [61] | [62] | [63] | [64] | [65] | [66]
> 100 µM: all other assays above

Cn1ccnc1C(c1nccn1C)C(C)(C)[N+](=O)[O-]
56.6 µM: [35]
not listed: [5] | [14] | [18] | [22] | [27] | [30] | [31] | [36] | [49] | [58] | [59] | [60] | [61] | [62] | [63] | [64] | [65] | [66]
> 100 µM: all other assays above

CCOCC(=O)N[C@H]1CCc2cc(OC)c(OC)c(OC)c2-c2ccc(SC)c(=O)cc21
2.31 µM: [65]
4.49 µM: [6]
> 70.2 µM: [32]
> 45.8 µM: [24]
12.5 µM: [48]
> 90.9 µM: [43]
> 51.4 µM: [66]
> 35.7 µM: [29]
0.0582 µM: [61]
< 0.0347 µM: [28]
69 µM: [10]
0.253 µM: [40]
> 25.3 µM: [63]
> 18.1 µM: [57]
> 88 µM: [45]
< 0.0631 µM: [44]
< 0.0658 µM: [41]
4.64 µM: [42]
0.398 µM: [19] | [54] | [36]
2.39 µM: [9]
2.33 µM: [46]
> 62.6 µM: [16]
> 46.4 µM: [4]
< 0.01 µM: [58] | [13] | [59] | [51] | [53] | [55] | [33] | [64]
5.11 µM: [8]
9.64 µM: [22]
> 76.8 µM: [38]
1.49 µM: [1]
not listed: [11] | [25] | [27]
> 100 µM: all other assays above

Source: PubChem BioAssay (NCI)
